What all share (assay): DTP human tumour cell line panel, 48 h
Experiment [1] has as its system EKVX.
For experiment [2], the system named is HL-60.
The test system of experiment [3] is MDA-MB-231.
Experiment [4] relates to MDA-N.
Experiment [5] concerns MOLT-4.
Experiment [6] concerns Malme-3M.
The subject of experiment [7] is NCI-H226.
Experiment [8] has as its system NCI-H23.
Experiment [9] has as its system NCI-H522.
Experiment [10] deals with NCI/ADR-RES.
The subject of experiment [11] is OVCAR-8.
In experiment [12] the test system is RPMI-8226.
For experiment [13], the system named is RXF 393.
Experiment [14] has as its system SF-295.
The subject of experiment [15] is SK-MEL-28.
The subject of experiment [16] is SK-MEL-2.
The subject of experiment [17] is SNB-19.
In experiment [18] the test system is SNB-75.
Experiment [19] has as its system SR.
Experiment [20] relates to UACC-62.

The structures appear in SMILES notation.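 96-well plates; 48 h exposure; 5 concentrations. Endpoints by linear interpolation between flanking doses. Not reached: highest tested concentration assigned. Abbreviation: GI50, concentration required for 50% inhibition of growth.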 Activity calls are given as the source filed them. Rule as the data show it: active = GI50 up to about 1.1 µM and inactive = higher. Some results are limits rather than exact numbers.

Turning to `OC1c2ccccc2[C@@H]2[C@H]1[C@@H](c1ccccc1)C1(Cc3ccccc3C1O)[C@H]2c1ccccc1` (stereo not given in full), the GI50 in experiment [1] is 6.35 µM (inactive); in [2], 2.01 µM (inactive); in [3], 5.22 µM (inactive); in experiment [4], 3.85 µM (inactive); in experiment [5], 2.45 µM (inactive); in [6] it was 5.53 µM (inactive). In addition, the GI50 in [7] is 5.28 µM (inactive); in [8], 6.4 µM (inactive); in [9], 3.03 µM (inactive); in [10] it was 5.36 µM (inactive); in [11] it was 5.45 µM (inactive); in experiment [12], 2.84 µM (inactive). Moreover, the GI50 in experiment [13] was 2 µM (inactive); in experiment [14], 6.75 µM (inactive); in experiment [15] it was 9.55 µM (inactive); in [16], 7.06 µM (inactive); in experiment [17], 13.6 µM (inactive); in experiment [18] it was 7.73 µM (inactive). The 50% growth inhibitory concentration (GI50) in [19] is 1.11 µM (active); in experiment [20], 6.14 µM (inactive).
On to `CCOC(=O)/C(C#N)=C/c1ccc(SCc2ccco2)c([N+](=O)[O-])c1`, for which the GI50 in [1], in [2], in experiment [3], in [4], in experiment [5] and in experiment [6] was > 100 µM (inactive) each time. Besides, the GI50 in experiment [7], in experiment [8], in experiment [9], in [10], in experiment [11] and in experiment [12] was > 100 µM (inactive) throughout. For the same compound, the GI50 in experiment [13], in [14], in [15], in experiment [16], in experiment [17] and in experiment [18] was > 100 µM (inactive) throughout. Further, the GI50 in [19] is > 100 µM (inactive); in experiment [20], 57 µM (inactive).
For the compound `COC(=O)c1ccc(C)cc1CC1Cc2ccc(C)cc2C1=O` (stereo not given), the GI50 is 8.04 µM (inactive) in experiment [1]; 3.47 µM (inactive) in [2]; 14.9 µM (inactive) in experiment [3]; 1.75 µM (inactive) in [4]; 5.68 µM (inactive) in [5]; 5.24 µM (inactive) in experiment [6]. Also, the GI50 in experiment [7] is 6.04 µM (inactive); in experiment [8] it was 15.7 µM (inactive); in [9] it was 1.47 µM (inactive); in [10], 2.59 µM (inactive); in experiment [11], 12.2 µM (inactive); in [12], 7.91 µM (inactive). Moreover, the GI50 was 10.1 µM (inactive) in experiment [13]; 10.7 µM (inactive) in [14]; 8.43 µM (inactive) in experiment [15]; 11.9 µM (inactive) in experiment [16]; 6.24 µM (inactive) in experiment [17]; 5.69 µM (inactive) in experiment [18]. Further, the GI50 in experiment [19] was 3.05 µM (inactive); in experiment [20], 9.53 µM (inactive).
For `O=C1Oc2ccccc2C(=O)/C1=C\Nc1nc(-c2ccc(O)c(O)c2)cs1`, the GI50 in experiment [1] was 12.7 µM (inactive); in experiment [2], 2.32 µM (inactive); in experiment [3], 5.7 µM (inactive); in experiment [4], 4.98 µM (inactive); in [5] it was 0.447 µM (active); in experiment [6], 2.99 µM (inactive). Besides, the GI50 in [7] is 6.31 µM (inactive); in experiment [8], 2.81 µM (inactive); in experiment [9] it was 2.05 µM (inactive); in experiment [10], 4.46 µM (inactive); in experiment [11], 4.14 µM (inactive); in [12], 1.53 µM (inactive). Also, the GI50 in experiment [13] is 6.03 µM (inactive); in experiment [14] it was 24.8 µM (inactive); in [15], 9.12 µM (inactive); in experiment [16] it was 2.47 µM (inactive); in experiment [17], 11.7 µM (inactive); in experiment [18] it was 5.56 µM (inactive). Also, the results for the GI50 in experiment [19] and in experiment [20] were 1.19 µM (inactive) and 4.83 µM (inactive), respectively.
Turning to `OCc1ccc2c(c1)CC1(C2)Cc2cc3c(cc2C1)CCC3`, the GI50 is 8.04 µM (inactive) in experiment [1]; 1.11 µM (active) in experiment [2]; 1.34 µM (inactive) in experiment [3]; 0.339 µM (active) in [4]; 4.41 µM (inactive) in [5]; 4.71 µM (inactive) in experiment [6]. Moreover, the GI50 in [7] was 22.4 µM (inactive); in experiment [8], 4.3 µM (inactive); in [9], 3.52 µM (inactive); in experiment [10] it was 2.9 µM (inactive); in experiment [11] it was 10.8 µM (inactive); in experiment [12], 2.76 µM (inactive). The GI50 in experiment [13] is 2.58 µM (inactive); in experiment [14], 3.39 µM (inactive); in experiment [15], 8.3 µM (inactive); in experiment [16], 3.75 µM (inactive); in experiment [17] it was 4.89 µM (inactive); in [18], 2.26 µM (inactive). Moreover, the GI50 in [19] is 1.14 µM (inactive); in [20], 6.53 µM (inactive).
Take `N#Cc1c(N)nc2c3c1NC(=O)C(C(N)=O)C3c1ccccc1O2` (stereo not given): the GI50 in experiment [1] is 37.3 µM (inactive); in experiment [2], 99.3 µM (inactive); in experiment [3], 28.6 µM (inactive); in experiment [4], > 100 µM (inactive); in experiment [5], > 100 µM (inactive); in [6], > 100 µM (inactive). The GI50 was > 100 µM (inactive) in experiment [7]; 71.8 µM (inactive) in [8]; 22.1 µM (inactive) in experiment [9]; > 100 µM (inactive) in experiment [10]; 42.5 µM (inactive) in [11]; 63 µM (inactive) in experiment [12]. Further, the GI50 was 75.2 µM (inactive) in experiment [13]; 32.1 µM (inactive) in experiment [14]; > 100 µM (inactive) in experiment [15]; > 100 µM (inactive) in experiment [16]; 47.9 µM (inactive) in experiment [17]; 54.7 µM (inactive) in experiment [18]. Also, the GI50 in experiment [19] was 62.5 µM (inactive); in experiment [20], 27.5 µM (inactive).
`CCOc1c2c(cc3c1C(=O)c1c(OC)cccc1C3=O)C=C(OC)CC2`: the GI50 was > 25 µM (inactive) in experiment [1]; 5.62 µM (inactive) in experiment [2]; > 25 µM (inactive) in experiment [3]; 6.49 µM (inactive) in experiment [4]; 8.71 µM (inactive) in [5]; 13.6 µM (inactive) in experiment [6]. The GI50 is > 25 µM (inactive) in [7]; > 25 µM (inactive) in [8]; 10.4 µM (inactive) in [9]; 23.2 µM (inactive) in experiment [10]; > 25 µM (inactive) in experiment [11]; 7.24 µM (inactive) in [12]. For the same compound, the GI50 in experiment [13] was 12 µM (inactive); in [14], 10.7 µM (inactive); in experiment [15], > 25 µM (inactive); in [16], > 25 µM (inactive); in experiment [17] it was > 25 µM (inactive); in experiment [18], 8.28 µM (inactive). In addition, the GI50 in experiment [19] is 7.45 µM (inactive); in experiment [20], 10.3 µM (inactive).

Source of the values: ChEMBL document CHEMBL1201862, “PubChem BioAssay data set” (2004).
